Laboratory results taken from US20200009118A1, “COMPOSITIONS AND METHODS FOR THE TREATMENTOF NEURODEGENERATIVE AND OTHER DISEASES” (Glialogix, Inc., priority 2017, published 2020).

Tests used:
[1] = test system: xCT mRNA in primary rat astrocyte cells; test: qPCR of xCT mRNA in primary astrocytes; type: cell-based
Method: (§1) Primary rat astrocyte cells were purchased from All Cells (Catalog #RCTX-001F, Alameda, Calif.), thawed and resuspended in 13.4 ml of DMEM media (Catalog #12-614F, Lonza, Allendale, N.J.) supplemented with 15% v/v FBS (Catalog #F4135, Sigma-Aldrich, St. Louis, Mo.) and 560 μL aliquoted into wells in a 24-well plate. Cells were incubated at 37° C. with 5% CO2. For each qPCR experiment, 2-3 wells (approximately 42,000-63,000 cells) were transferred to a new 24-well plate with fresh astrocyte media, composed of 50% v/v DMEM, 50% v/v Neurobasal media (Catalog #12348-017), Life Technologies, supplemented with 2 mM glutamine, 300 μM L-cystine. Following 24 hours, cells were then mixed and aliquoted into 24 well plates at approximately 10,000 cells per well in the same media. Compounds to be tested were then added at the indicated concentrations and cells harvested 18 hours later by washing once with PBS (Catalog #P5493, Sigma-Aldrich) and then treated with 300 μl of StemProAccutase cell dissociation reagent (Catalog #A11105-01, Life Technologies) and incubated for 5-10 minutes at 37° C. PBS (300 μl) was added and the cells spun down in a microfuge for 5 minutes at 2,000×g at 4° C. The supernatant was removed and mRNA was isolated from the cells by using the Purelink microscale RNA extraction kit (Catalog #12183016, Life Technologies) according to the manufacturer's instructions. The mRNA resuspended in 12-22 μl of RNase-free water. cDNA was prepared by use of the Superscript VILO kit (Catalog #11755050, Life Technologies) according to the manufacturer's instructions. The cDNA was eluted in a final volume of 20 μl RNase-free water in and 4 μl was used for each qPCR reaction. qPCR reactions and primers were as described in Example 11.
(§2) To determine if tunicamycin increased levels of xCT mRNA, Tunicamycin (5 ng/ml) was added to the primary astrocyte cell cultures in astrocyte media. xCT gene expression was determined by qPCR after 18 hours of exposure to tunicamycin.
(§3) The Cycle threshold is abbreviated Ct. The change in Ct equals [Ct (minus test agent)−Ct (plus test agent)]. Changes in Ct of the test genes xCT and Lcn-2 are normalized by subtracting the change in Ct of the control gene, either gamma-actin or Hypoxanthine-guanine phosphoribosyl transferase (HPRT). Ct values are converted to absolute values by the formula: absolute value=2^^(normalized change in Ct). Absolute values are converted to percent change by multiplying the absolute value by 100.
(§4) Using the methods described in Example 11, various agents known to cause activation of neuroinflammatory cells and/or cause or reflect stress and damage to neurons, axons and/or oligodendrocytes were tested for causing an increase in xCT levels in primary rat astrocytes.

[2] = test system: Lcn-2 mRNA in primary rat astrocyte cells; test: qPCR of Lcn-2 mRNA in primary astrocytes; type: cell-based; conditions: astrocyte media
Method: as §1, §2, §3, §4

2D2-TCR MOG (2D2) mice = test: 2D2 mouse model of optic neuritis, myelin staining of the optic nerve; type: in vivo; conditions: for Number of animals, average myelin content score Low / Number of animals, average myelin content score high / Number of animals, average myelin content score moderate: sulfasalazine 200 mg/kg or memantine 5 mg/kg IP BID
Description: This model serves as an inducible model of optic neuritis with a high rate of penetrance. The development of optic neuritis was monitored by animal observation and histopathology.
Female 2D2 (strain C57BL/6-Tg(Tcra2D2,Tcrb2D2)1Kuch/J) and WT mice (C57BL/6) were purchased from The Jackson Laboratory. Each cohort size was 14 animals. Mice were delivered to Ophthy-DS (Kalamazoo, Mich.) under the supervision of Renovo Neural (Cleveland, Ohio) at 8-12 weeks of age and then acclimated for an additional 4 weeks before beginning the experiment. Animals were housed in pathogen-free, individually-ventilated, enriched cages on a 12 h:12 h light:dark cycle with food and water ad libitum. Mice were monitored daily for welfare and symptoms of optic neuritis.
After 4 weeks of acclimation, animals were randomized by weight into 4 groups of 14 animals each. To induce optic neuritis, 200 ng of Pertussis toxin was injected into the 2D2 animals on days 1 and 3 as described by Guan et al. Dosing of vehicle or treatment compounds began at day 1. The four cohorts are: • (1) WT mice (C57BL/6) treated with vehicle (200 μl saline IP, BID). This cohort serves as a control for the readouts of optic neuritis disease. • (2) 2D2 mice vehicle treated with vehicle (200 μl saline IP, BID). […] The memantine-treated group served as a control for anti-glutamatergic therapy in the 2D2 model of optic neuritis.
On day 30, animals were euthanized and perfused. Optic nerves and retinas were dissected out and embedded in paraffin and sections mounted on slides. 5-7 sections of the optic nerve (from one eye) from ten animals in each cohort were stained by Toluidine Blue. Histopathological analysis of the slides and quantitation of the myelin staining intensity was performed blinded by a board-certified pathologist, Dr. Igor Polyakov (Minneapolis, Minn.). Staining intensity of each slide was graded as either low, moderate or high. Both peripheral and central sections of the optic nerve were graded. The intensity of the myelin staining between the cohorts on a per section and a per animal basis was compared using chi-square and Fishers' exact test with a p<0.05 considered significant.
On a per animal basis, this yielded 20 scores per cohort: average score per section×2 scores per animal (peripheral or central)×10 animals per cohort. On a per section basis, this yielded approximately 110 score per cohort: score per section×5-7 sections per animal×2 scores per section (peripheral or central)×10 animals per cohort.

[3] = 5 μM, astrocyte media, control gene gamma-actin
[4] = 50 μM, astrocyte media, control gene gamma-actin
[5] = Total (central + peripheral, 20 scores), day 30
[6] = per section basis, Central Region, day 30
[7] = per section basis, Peripheral Region, day 30
[8] = per section basis, Total, day 30
[9] = 2 μg/ml, astrocyte media, control gene gamma-actin
[10] = 20 ug/ml, astrocyte media, control gene gamma-actin
[11] = 1 ng/ml, astrocyte media, control gene HPRT
[12] = 1 ng/ml, astrocyte media, control gene gamma-actin
[13] = 100 ng/ml, astrocyte media, control gene HPRT
[14] = 100 ng/ml, astrocyte media, control gene gamma-actin
[15] = 100 ng/ml, control gene gamma-actin
[16] = 20 ng/ml, astrocyte media, control gene gamma-actin
[17] = 200 ng/ml, astrocyte media, control gene gamma-actin
[18] = 5 ng/ml, astrocyte media, 18 hours
[19] = 25 ng/ml, astrocyte media, control gene HPRT
[20] = 25 ng/ml, astrocyte media, control gene gamma-actin

OO [H2O2, Hydrogen Peroxide]
xCT, Change in Ct normalized to control gene [1, 3]: 2.484
xCT, Fold change normalized [1, 3]: 5.59
xCT, Percent change normalized [1, 3]: 559%
xCT, Change in Ct normalized to control gene [1, 4]: 2.588
xCT, Fold change normalized [1, 4]: 6.01
xCT, Percent change normalized [1, 4]: 601%
Lcn-2, Percent change normalized ([2]; 5 μM, control gene gamma-actin): 15%
Lcn-2, Percent change normalized ([2]; 50 μM, control gene gamma-actin): 19%

CC12CC3CC(C)(C1)CC(N)(C3)C2 [memantine]
Number of animals, average myelin content score Low (2D2-TCR MOG (2D2) mice; Central Region, day 30): 0
Number of animals, average myelin content score high (2D2-TCR MOG (2D2) mice; Central Region, day 30): 3
Number of animals, average myelin content score moderate (2D2-TCR MOG (2D2) mice; Central Region, day 30): 7
Number of animals, average myelin content score Low (2D2-TCR MOG (2D2) mice; Peripheral Region, day 30): 2
Number of animals, average myelin content score high (2D2-TCR MOG (2D2) mice; Peripheral Region, day 30): 3
Number of animals, average myelin content score moderate (2D2-TCR MOG (2D2) mice; Peripheral Region, day 30): 5
Number of animal scores, myelin content High (2D2-TCR MOG (2D2) mice; [5]): 6
Number of animal scores, myelin content Low (2D2-TCR MOG (2D2) mice; [5]): 2
Number of animal scores, myelin content Moderate (2D2-TCR MOG (2D2) mice; [5]): 12
myelin content compared to the vehicle-treated 2D2 animals (2D2-TCR MOG (2D2) mice; optic nerve, day 30): highly significant increase in myelin content
Number of sections, myelin content Low (2D2-TCR MOG (2D2) mice; [6]): 0
Number of sections, myelin content high (2D2-TCR MOG (2D2) mice; [6]): 14
Number of sections, myelin content moderate (2D2-TCR MOG (2D2) mice; [6]): 41
Number of sections, myelin content Low (2D2-TCR MOG (2D2) mice; [7]): 10
Number of sections, myelin content high (2D2-TCR MOG (2D2) mice; [7]): 14
Number of sections, myelin content moderate (2D2-TCR MOG (2D2) mice; [7]): 31
Number of section scores, myelin content High (2D2-TCR MOG (2D2) mice; [8]): 28
Number of section scores, myelin content Low (2D2-TCR MOG (2D2) mice; [8]): 10
Number of section scores, myelin content Moderate (2D2-TCR MOG (2D2) mice; [8]): 72
Percent scores, Myelin content-Total High (2D2-TCR MOG (2D2) mice; per-animal basis): 30%
Percent scores, Myelin content-Total Low (2D2-TCR MOG (2D2) mice; per-animal basis): 10%
Percent scores, Myelin content-Total Moderate (2D2-TCR MOG (2D2) mice; per-animal basis): 60%
Percent scores, Myelin content-Total High (2D2-TCR MOG (2D2) mice; per-section basis): 25%
Percent scores, Myelin content-Total Low (2D2-TCR MOG (2D2) mice; per-section basis): 9%
Percent scores, Myelin content-Total Moderate (2D2-TCR MOG (2D2) mice; per-section basis): 65%

A-beta 1-40: A-beta 1-40 peptide, misfolded/aggregated protein
xCT, Change in Ct normalized to control gene [1, 9]: 0.276
xCT, Fold change normalized [1, 9]: 1.21
xCT, Percent change normalized [1, 9]: 121%
xCT, Change in Ct normalized to control gene [1, 10]: 0.951
xCT, Fold change normalized [1, 10]: 1.93
xCT, Percent change normalized [1, 10]: 193%
Lcn-2, Percent change normalized ([2]; 2 μg/ml, control gene gamma-actin): 130%
Lcn-2, Percent change normalized ([2]; 20 ug/ml, control gene gamma-actin): 140%

IL1-beta: inflammatory cytokine
xCT, Change in Ct normalized to control gene [1, 11]: 1.536
xCT, Fold change normalized [1, 11]: 2.90
xCT, Percent change normalized [1, 11]: 290%
xCT, Change in Ct normalized to control gene [1, 12]: 1.538
xCT, Fold change normalized [1, 12]: 2.90
xCT, Percent change normalized [1, 12]: 290%
xCT, Change in Ct normalized to control gene [1, 13]: 1.515
xCT, Fold change normalized [1, 13]: 2.86
xCT, Percent change normalized [1, 13]: 286%
xCT, Change in Ct normalized to control gene [1, 14]: 2.560
xCT, Fold change normalized [1, 14]: 5.90
xCT, Percent change normalized [1, 14]: 590%
Lcn-2, Percent change normalized ([2]; 1 ng/ml, control gene HPRT): 23,480%
Lcn-2, Percent change normalized ([2]; 1 ng/ml, control gene gamma-actin): 23,522%
Lcn-2, Percent change normalized ([2]; 100 ng/ml, control gene HPRT): 9,185%
Lcn-2, Percent change normalized [2, 15]: 18,958%

IL-6: inflammatory cytokine
xCT, Change in Ct normalized to control gene [1, 16]: 0.366
xCT, Fold change normalized [1, 16]: 1.29
xCT, Percent change normalized [1, 16]: 129%
xCT, Change in Ct normalized to control gene [1, 14]: 0.380
xCT, Fold change normalized [1, 14]: 1.30
xCT, Percent change normalized [1, 14]: 130%
Lcn-2, Percent change normalized ([2]; 20 ng/ml, control gene gamma-actin): 146%
Lcn-2, Percent change normalized [2, 15]: 130%

Pam2CSK4
xCT, Change in Ct normalized to control gene [1, 17]: 0.65
xCT, Fold change normalized [1, 17]: 1.57
xCT, Percent change normalized [1, 17]: 157%
Lcn-2, Percent change normalized ([2]; 200 ng/ml, control gene gamma-actin): 1,602%

Tunicamycin
xCT, Absolute change normalized to Gamma-actin [1, 18]: 56.1
xCT, Absolute change normalized to HPRT [1, 18]: 23.1
xCT, Change in Ct (not normalized) [1, 18]: 5.529
xCT, Change in Ct normalized to Gamma actin [1, 18]: 5.809
xCT, Change in Ct normalized to HPRT [1, 18]: 4.530
xCT, Ct with agent [1, 18]: 25.060
xCT, Percent change normalized to Gamma-actin [1, 18]: 5,606%
xCT, Percent change normalized to HPRT [1, 18]: 2,310%
xCT expression increased by ([1]; 5 ng/ml, regardless of normalization to gamma-actin or HPRT): over 2,000%
xCT, Change in Ct normalized to control gene [1, 19]: 4.540
xCT, Fold change normalized [1, 19]: 23.26
xCT, Percent change normalized [1, 19]: 2,326%
xCT, Change in Ct normalized to control gene [1, 20]: 5.915
xCT, Fold change normalized [1, 20]: 60.34
xCT, Percent change normalized [1, 20]: 6,034%
Lcn-2, Absolute change normalized to Gamma-actin ([2]; 5 ng/ml, 18 hours): 64.6
Lcn-2, Absolute change normalized to HPRT ([2]; 5 ng/ml, 18 hours): 32.3
Lcn-2, Change in Ct (not normalized) ([2]; 5 ng/ml, 18 hours): 5.734
Lcn-2, Change in Ct normalized to Gamma actin ([2]; 5 ng/ml, 18 hours): 6.014
Lcn-2, Change in Ct normalized to HPRT ([2]; 5 ng/ml, 18 hours): 5.015
Lcn-2, Ct with agent ([2]; 5 ng/ml, 18 hours): 27.123
Lcn-2, Percent change normalized to Gamma-actin ([2]; 5 ng/ml, 18 hours): 6,460%
Lcn-2, Percent change normalized to HPRT ([2]; 5 ng/ml, 18 hours): 3,230%
Lcn-2, Percent change normalized ([2]; 25 ng/ml, control gene HPRT): 2,290%
Lcn-2, Percent change normalized ([2]; 25 ng/ml, control gene gamma-actin): 5,940%
